Assays:
[1] = target: Tubulin; assay: Inhibition of tubulin polymerization (unknown origin); format: protein-complex assay, Homo sapiens
[2] = target: Tubulin (Homo sapiens) (UniProt P68371+Q9H4B7+P0DPH7+P68366+Q13509+Q71U36+P04350+Q3ZCM7+P07437+P68363+Q9BQE3+Q6PEY2+Q13885+Q9BVA1+Q9BUF5); assay: Displacement of [3H]colchicine from tubulin (unknown origin) at 5 uM; format: protein-complex assay
[3] = test system: A549; assay: Cytotoxicity against human A549 cells; format: functional, cell-based

Which IC50 [1] does the source give for `COC(=O)Nc1nc2ccc(C(=O)c3ccc(OC)cc3O)cc2[nH]1` here?
Its IC50 is 2.2 µM.

What about the inhibition [2] of the same compound?
Its inhibition is 38%.

What about the IC50 [3] of the same compound?
The IC50 was greater than 100 µM.

What does the source list for `COC(=O)Nc1nc2ccc(C(=O)c3ccc(O)cc3O)cc2[nH]1`?
IC50 [1]: > 20 µM; IC50 [3]: > 100 µM

What does the source list for `COC(=O)Nc1nc2ccc(/C=C\c3cc(OC)c(OC)c(OC)c3)cc2[nH]1`?
IC50 [1]: 1.6 µM; inhibition [2]: 39%; IC50 [3]: 12 µM

For `COC(=O)Nc1nc2ccc(C(=O)c3sccc3O)cc2[nH]1`, which IC50 [1] is on record?
Its IC50 is 2 µM.

What about the inhibition [2] of the same compound?
The inhibition was 56%.

What about the IC50 [3] of the same compound?
Its IC50 is 6 µM.

From ChEMBL document CHEMBL3400129, “Novel hybrid nocodazole analogues as tubulin polymerization inhibitors and their antiproliferative activity” (Bioorg Med Chem Lett, 2015)
